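Protocol summary: plate cells (96-well), add compound at 5 concentrations, incubate 48 h, interpolate endpoints linearly. The concentration for full growth arrest is given as TGI.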
How the values were obtained:
Experiment in all cases: inhibition of tumour cell growth, NCI panel, 48 h
A498 renal = test system: A498 renal
CAKI-1 renal = test system: CAKI-1 renal
HCC-2998 colon = test system: HCC-2998 colon
HL-60(TB) leukemia = test system: HL-60(TB) leukemia
K-562 leukemia = test system: K-562 leukemia
MCF7 breast = test system: MCF7 breast
NCI-H23 lung = test system: NCI-H23 lung
OVCAR-3 ovarian = test system: OVCAR-3 ovarian
RPMI-8226 leukemia = test system: RPMI-8226 leukemia
SK-MEL-28 melanoma = test system: SK-MEL-28 melanoma
SK-MEL-5 melanoma = test system: SK-MEL-5 melanoma
SNB-19 CNS = test system: SNB-19 CNS
TK-10 renal = test system: TK-10 renal

Row | Structure (SMILES) | TGI (A498 renal) | TGI (CAKI-1 renal) | TGI (HCC-2998 colon) | TGI (HL-60(TB) leukemia) | TGI (K-562 leukemia) | TGI (MCF7 breast) | TGI (NCI-H23 lung) | TGI (OVCAR-3 ovarian) | TGI (RPMI-8226 leukemia) | TGI (SK-MEL-28 melanoma) | TGI (SK-MEL-5 melanoma) | TGI (SNB-19 CNS) | TGI (TK-10 renal)
1 | COC1(CC[C@H](C)COC2OC(CO)C(O)C(O)C2O)O[C@H]2C[C@H]3[C@@H]4CC=C5C[C@@H](OC6OC(CO)C(O)C(OC7OC(CO)C(O)C(O)C7O)C6OC6OC(C)C(O)C(O)C6O)CC[C@]5(C)[C@H]4CC[C@]3(C)[C@H]2[C@@H]1C (some centres undefined) | 34.5 µM | 10.4 µM | 11.6 µM | 8.53 µM | > 47.9 µM | 37.7 µM | 18.9 µM | 33.1 µM | 23.6 µM | 6.74 µM | 16.9 µM | 18.4 µM | > 69.7 µM
2 | CC(=O)O[C@@H]1O[Si](C(C)(C)C)(C(C)(C)C)[C@H](C)[C@H]1C | > 100 µM | > 100 µM | > 100 µM | 44 µM | > 100 µM | 83 µM | > 100 µM | > 100 µM | > 100 µM | > 100 µM | > 100 µM | > 100 µM | > 100 µM
3 | CC(C)CN(CC#N)CC(C)C | > 100 µM | > 100 µM | > 100 µM | > 100 µM | > 100 µM | > 100 µM | > 100 µM | > 100 µM | > 100 µM | > 100 µM | > 100 µM | > 100 µM | > 100 µM
4 | COc1ccc(CNC(=O)[C@H](Cc2ccc(O)cn2)NC(C)=O)cc1 | > 100 µM | > 100 µM | > 100 µM | > 100 µM | > 100 µM | > 100 µM | > 100 µM | > 100 µM | > 100 µM | > 100 µM | > 100 µM | > 100 µM | > 100 µM
5 | COc1cccc2cc(C(=O)Nc3ccccn3)c(=N)oc12 | > 100 µM | > 100 µM | > 100 µM | 82.9 µM | > 100 µM | > 100 µM | > 100 µM | 88.4 µM | > 100 µM | > 100 µM | > 100 µM | > 100 µM | > 100 µM
6 | O=C(/C=C/c1ccc(O)c(O)c1)NCCc1ccc(-c2ccccc2)cc1 | > 100 µM | > 100 µM | > 100 µM | > 100 µM | 80.4 µM | > 100 µM | > 100 µM | 65.7 µM | > 100 µM | > 100 µM | > 100 µM | > 100 µM | 63.3 µM
7 | O=C(O)C12C3CCC(O3)C1(C(=O)O)C1CCC2O1 (centres undefined) | > 100 µM | > 100 µM | > 100 µM | > 100 µM | > 100 µM | > 100 µM | > 100 µM | > 100 µM | > 100 µM | > 100 µM | > 100 µM | > 100 µM | > 100 µM
8 | COc1cc(C23OCC(Cc4cc5c(cc42)OCO5)C3CO)cc(OC)c1OC (centres undefined) | > 100 µM | > 100 µM | 6.89 µM | > 50.1 µM | > 100 µM | > 100 µM | > 100 µM | 5.8 µM | > 100 µM | > 100 µM | > 100 µM | > 100 µM | > 100 µM
